Results on 3 molecules are retold here after patent EP3061351B1, “Food product for young subjects” (Dopharma Research B.V., priority 2015, dated 2016).

One data set relates to streptococci. The following applies: among naturally present medium and long chain free fatty acids, Kabara et al. 1972; cited from earlier work.
For data set [1], the system named is Caco-2 cells. Nature of the data set: TEER measurements of Caco-2 monolayer challenged with DON. Type of data set: cell-based. The following applies: 4.2 µM DON, 24 hours. As to the method: (§1) Caco-2 cells were cultured in minimal essential media (MEM), supplemented with 10% FBS, 1% non essential amino acids (NEAA), 1% pyruvate, penicillin (100 U/mL) and streptomycin (100 µg/mL), all from Gibco (Life Technologies Europe, Bleiswijk, The Netherlands). Experiments with Caco-2 cells were conducted with cells grown on sterile 0.3 cm2 transwell with 0.4 µm pore polyester membrane inserts placed in a 24-well plate (Corning, Sigma-Aldrich, The Netherlands), if not stated otherwise. The cells were seeded at a density of 1 * 10^5 cells per insert. The cell culture plates were incubated at 37°C, in a humidified atmosphere with 5% CO2. […] The cell culture was regularly tested and found to be free of mycoplasma contamination.
Caco-2 cells were cultured as described above. The integrity of the monolayer was evaluated on a regular basis using the first two 24-well plates during 21 days. To avoid contamination, in the next well plates, TEER was only measured right before the start of the experiment. On average, TEER values for untreated cells were 550 ± 24 Ω˙cm2. […]
Caco-2 and IPEC-J2 cells were grown on inserts and in 12 well plates respectively. […] TEER was measured as described above. Interleukin-8 (IL-8) was analyzed using porcine CXCL8/IL-8 DuoSet ELISA kit (DY535, R&D systems Abbingdon, UK) according to the manufacturer's protocol. […]

In the next data set the test system is IPEC-J2 cells. Nature of the data set: MTT assay, cytotoxicity of DON. The following applies: 4.2 µM DON, confirmation of the literature, data not shown. Type of data set: cell-based, porcine. On the procedure: Intestinal porcine epithelial cells (IPEC-J2 passages 83 - 87) were a kind gift from prof. R. Pieters (IRAS, Utrecht University, The Netherlands). IPEC-J2 cells were cultured in 25 cm^2 cell culture flasks (Greiner Bio-One, Alphen a/d Rijn, The Netherlands) in Dulbecco's modified Eagle's medium (DMEM)/ Ham's F12 supplemented with 10% fetal bovine serum, penicillin (100 U/mL) and streptomycin (100 µg/mL) (Gibco, Life Technologies Europe, Bleiswijk, The Netherlands). IPEC-J2 cells were used for MTT analysis.
To confirm lack of cytotoxicity at 4.2 µM of DON as published previously by Akbari et al. (The FASEB Journal […]; 28, 2414-2429), an MTT assay using IPEC-J2 cells was performed in a 96-well plate. The MTT assay assesses cell viability by analyzing the capability of cells to reduce the tetrazolium dye MTT (3-(4,5-dimethylthiazol-2-yl)-2.5-diphenyltetrazolium bromide, Sigma Aldrich, Zwijndrecht, The Netherlands) into the purple colored formazan. Using colorimetric analysis, the cell viability is quantified. For the MTT assay, a 5 mg/ml MTT-stock was prepared in PBS and this was diluted six times in 10% FBS in medium. Supernatant was aspirated and cells were incubated with 100 µl of the MTT solution. This was incubated for 3 hours in the incubator. […] Plate was shaken at low intensity for ten minutes and absorption at 560 nm was measured using spectrophotometer (Fluostar Omega, BMG Labtech).
In general terms: Tetrazolium dyes change colour on reduction, which living cells bring about.

The conditions of data set [2]: concentration of 4.2 µM, Akbari et al.; cited from earlier work.
Data set [3] relates to Caco-2 cells. Nature of the data set: Interleukin-8 production of DON-challenged Caco-2 cells (ELISA). Type of data set: cell-based. The following applies: apical side, 24 h incubation with 4.2 µM DON, digests 1:100 added 2 hours before DON. As to the method: as §1
Caco-2 and IPEC-J2 cells were grown on inserts and in 12 well plates respectively. Confluent layers of cells were incubated with 1:100 dilutions of digests 2 hours prior to addition of DON. Cells were then incubated in the presence of both digests and DON for 24 hours prior to analysis. TEER was measured as described above. Interleukin-8 (IL-8) was analyzed using porcine CXCL8/IL-8 DuoSet ELISA kit (DY535, R&D systems Abbingdon, UK) according to the manufacturer's protocol. Apical an basolateral supernatant of transwell plates were used for analysis. Samples were diluted ten times in PBS. […]
(In general: An ELISA detects its analyte on a solid surface through an enzyme-linked reagent.)

For data set [4] the following is noted: 4.2 µM for 24 hours, Akbari et al.; cited from earlier work.

As to `CCCCCCCCCCCC(=O)O` [lauric acid], the activity against streptococci entry in the data set with streptococci is “among the most active free fatty acids”.

For the molecule `CCCCCC/C=C\CCCCCCCC(=O)O` [palmitoleic acid], the activity against streptococci result in the data set on streptococci was “among the most active free fatty acids”.

For `CC1=C[C@H]2O[C@@H]3[C@H](O)C[C@](C)([C@@]2(CO)[C@H](O)C1=O)[C@]31CO1` [DON, Deoxynivalenol], in the data set with Caco-2 cells [1], the “TEER decrease as compared to control” value is on record as 15%. Besides, the “cytotoxicity (MTT assay)” value with IPEC-J2 cells is on record as “not cytotoxic”. Also, the direct cytotoxicity result in data set [2] is recorded as “not cytotoxic”. Besides, the IL8 production with Caco-2 cells [3] was 121.7 pg/mL. In addition, in data set [4], the TEER reduction is around 80%.
